Reference: patent US12390477B2, “Ganaxolone for use in treating tuberous sclerosis complex and seizure disorders” (Immedica Pharma US Inc., priority 2021, dated 2025)

What was measured:
[1] = target: CYP2C19 (Homo sapiens, UniProt P33261); details: cited from earlier work
[2] = tested on: TSC-associated seizures; experiment: Phase 2 open-label trial of adjunctive ganaxolone in TSC-related epilepsy (Part A): seizure frequency; assay type: in vivo, human
Procedure: A Phase 2 open-label 12 week trial of adjunctive ganavolone treatment (Part A) in tuberous sclerosis complex-related epilepsy followed by long-term treatment (Part B) was conducted. This was a multicenter study conducted at 7 sites in the United States.
The primary objectives were to assess preliminary safety and efficacy of ganavolone (GNX) as adjunctive therapy for the treatment of primary seizure types in patients with genetically- or clinically-confirmed TSC-related epilepsy through the end of the 12 week treatment period. The primary seizure types (focal motor seizures without impairment of consciousness or awareness, focal seizures with impairment of consciousness or awareness, focal seizures evolving to bilateral, tonic-clonic convulsive seizures, and generalized motor seizures including tonic-clonic, bilateral tonic, bilateral clonic, or atonic/drop seizures) are identified to be the most common, easily identifiable/countable by a parent/caregiver/legally authorized representative (LAR), and most consequential to the patient's quality of life.
(§1) This was an open label (OL) proof of concept study of adjunctive GNX treatment in patients with a confirmed clinical diagnosis of TSC and/or a mutation in either the TSC1 or TSC2 gene. The trial consisted of two parts: Part A consisted of a 4-week baseline period followed by a 12-week treatment period (4-week titration and 8-week maintenance). For patients not continuing in the OLE period (Part B), a 2-week taper period followed by a 2-week safety period followed. The main difference between Part A and Part B is the length of treatment, less frequent assessments, and the ability to alter drug doses (both GNX and other antiepileptic drug [AED] treatments which includes initiating and stopping other medications) based on investigator evaluation of the patient's clinical course during Part B. Patients with a seizure frequency reduction rate of ≥35% during the 12-week treatment period in Part A compared to baseline were eligible to continue into Part B (“OLE eligible”).
(§2) After meeting all eligibility criteria, approximately 30 patients aged 2 to 65 years (inclusive) with TSC-related epilepsy were enrolled to receive GNX for a total of 12 weeks (4 week titration, 8 week maintenance) in addition to their standard anti-seizure medication(s) (ASMs). Patients were titrated to 63 mg/kg/day (maximum 1800 mg/day) over 4 weeks, and then maintained at that dose for another 8 weeks. Patients who were not able to tolerate 63 mg/kg/day (or maximum 1800 mg/day) were eligible to be maintained on a lower dose after discussion with the medical monitor. A minimum dose of 33 mg/kg/day or 900 mg/day was generally required during the maintenance period.
Patients were required to complete a daily diary to determine GNX's effect on seizures. Days without seizures should also have been noted. Additional clinician and caregiver administered instruments were used to assess the efficacy of GNX in TSC and included: Caregiver Global Impression of Change (CGI-C)—Target Behavior and Clinical Global Impression—Improvement (CGI-I) caregiver and CGI-I clinician.
Ganaxolone was administered in increments of 15 mg/kg/day up to 63 mg/kg/day (maximum 1800 mg/day) given as an oral suspension with food. Patients weighing ≤28 kg were dosed on an mg/kg basis. Patients weighing >28 kg were dosed on a fixed regimen in increments of 450 mg/day up to 1800 mg/day.
Seizures: All seizure types and number of seizures were to be recorded daily in a diary. Days in which no seizures occur were also to be noted.
Primary Efficacy Endpoint: The primary efficacy endpoint was the percent change in 28-day primary seizure frequency through the end of the 12-week treatment period (4-week titration and 8-week maintenance) relative to the 4-week baseline. […]

[3] = Marigold phase 3 trial of ganaxolone in CDD: safety and tolerability; assay type: in vivo, human; details: CDD patients
Description: (§3) The Marigold Study was a phase 3 clinical trial of ganaxolone for the treatment of CDD. The trial met primary endpoint-median 28-day major motor seizure frequency reduction of 32.2 percent compared to 4.9 percent for placebo. […] The most frequent adverse event was somnolence.

[4] = Human pharmacokinetic studies of ganaxolone and CBD; assay type: in vivo
Description: Without wishing to be bound by any particular theory, the inventors believe that the results of the clinical study can be explained by a previously unknown and unexpected drug interaction between ganaxolone and CBD. This is unexpected because ganaxolone is metabolized by CYP3A4/5. Landmark et al. Epilepsia 2021 62:857-873. […] Accordingly, it was unexpected that ganaxolone plasma concentrations, tolerability and efficacy would be affected by concomitant CBD. […] Thus, without wishing to be bound by any particular theory or mechanism, the unexpected drug-drug interaction could be a pharmacodynamic interaction.

[5] = tested on: major motor seizures in CDD; experiment: Marigold phase 3 trial of ganaxolone in CDKL5 deficiency disorder: seizure frequency; assay type: in vivo, human
Description: as §3
(See, FIG. 10.) These effects are unlikely secondary to age or weight, which were balanced between the two groups.

[6] = tested on: CYP3A4/5; details: cited from earlier work
[7] = tested on: UGT1A9, UGT2B7, CYP1A2, CYP2B6, CYP2C8, CYP2C9 or CYP2C19; details: cited from earlier work
[8] = Phase 2 open-label TSC trial (Part A): ganaxolone plasma/serum concentration; assay type: in vivo, human
Procedure: (§4) Pharmacokinetics, Safety and tolerability were assessed.

[9] = Phase 2 open-label TSC trial (Part A): safety and tolerability, adverse events; assay type: in vivo, human
Description: as §1, §2, §4
If the next dose was still not tolerated, the patient could drop back to the next lower dose step. A minimum dose of 33 mg/kg/day or 900 mg/day was generally required following the escalation period, during the maintenance period.

Sequence of CYP2C19 (P33261 whole entry): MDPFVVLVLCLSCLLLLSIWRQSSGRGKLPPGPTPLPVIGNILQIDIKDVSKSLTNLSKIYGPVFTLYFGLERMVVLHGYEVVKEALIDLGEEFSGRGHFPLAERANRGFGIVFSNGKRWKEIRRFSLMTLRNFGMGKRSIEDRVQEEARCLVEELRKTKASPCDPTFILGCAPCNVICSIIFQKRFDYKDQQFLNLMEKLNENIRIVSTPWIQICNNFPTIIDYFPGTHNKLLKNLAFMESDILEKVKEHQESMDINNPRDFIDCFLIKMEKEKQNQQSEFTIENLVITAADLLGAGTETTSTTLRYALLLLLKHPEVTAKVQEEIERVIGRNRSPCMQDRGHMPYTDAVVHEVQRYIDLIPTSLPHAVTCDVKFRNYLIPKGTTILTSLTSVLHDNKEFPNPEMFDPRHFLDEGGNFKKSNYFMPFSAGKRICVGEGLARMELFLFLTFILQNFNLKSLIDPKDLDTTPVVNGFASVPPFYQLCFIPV

Structure (SMILES): C=C(C)[C@@H]1CCC(C)=C[C@H]1c1c(O)cc(CCCCC)cc1O [EPIDIOLEX, cannabidiol]
- increase in plasma concentration of N-desmethylclobazam ([1]; coadministration with clobazam (a CYP2C19 substrate)): 3 fold
- effect on clobazam levels ([1]; coadministration with clobazam): no effect

Structure (SMILES): CC(=O)[C@H]1CC[C@H]2[C@@H]3CC[C@H]4C[C@](C)(O)CC[C@]4(C)[C@H]3CC[C@]12C [ganaxolone, 3α-hydroxy-3β-methyl-5α-pregnan-20-one]
- median reduction in TSC-associated seizure frequency ([2]; 23 enrolled patients, 12-week treatment vs 4-week baseline): 16.6%
- patients achieving ≥50% reduction in TSC-associated seizure frequency ([2]; all enrolled patients (n=23)): 30.4%
- efficacy in patients receiving concomitant EPIDIOLEX (CBD) at 10 mg/kg/day or less ([2]; concomitant CBD 10 mg/kg/day or less): robust efficacy
- suppression of seizure (efficacy) with concomitant CBD above 10 mg/kg vs no CBD or CBD at or below 10 mg/kg ([2]; concomitant CBD above 10 mg/kg): lower suppression of seizure
- fraction of patients with robust reduction in TSC-associated seizures ([2]; including those on concomitant cannabidiol and everolimus): ⅓
- median percent reduction in focal seizure frequencies ([2]; n=19): 25.2%
- patients achieving ≥50% reduction in TSC-associated seizure frequency ([2]; patients that received concomitant cannabidiol (n=12)): 25%
- patients achieving ≥50% reduction in TSC-associated seizure frequency ([2]; patients that received concomitant everolimus (n=11)): 36.4%
- median percent reduction in TSC-associated seizures, no concomitant cannabidiol vs concomitant cannabidiol ([2]; patients without concomitant cannabidiol (n=11) compared with patients on cannabidiol): greater median percent reduction
- discontinuation rate in the active treatment arm [3]: less than 5%
- most frequent adverse event [3]: somnolence
- overall tolerability [3]: generally well tolerated
- pharmacokinetic drug-drug interaction of ganaxolone and CBD [4]: did not provide evidence of a pharmacokinetic drug-drug interaction
- median 28-day major motor seizure frequency reduction ([5]; CDD patients, ganaxolone arm): 32.2%
- efficacy in patients who experienced somnolence-related adverse events vs those who did not ([5]; ganaxolone treatment group (N=49), FIG. 10): reduced efficacy
- metabolizing enzyme [6]: CYP3A4/5
- metabolism by enzymes implicated in CBD interactions with other drugs [7]: not significantly metabolized
- mean ganaxolone serum concentration in patients with somnolence-related adverse events relative to patients without ([8]; FIG. 3): higher
- mean ganaxolone plasma concentration with concomitant cannabidiol vs without ([8]; FIG. 4): higher
- ganaxolone plasma concentration in relation to concomitant cannabidiol dose ([8]; FIG. 5, n=11): higher doses of cannabidiol were associated with higher plasma concentrations of ganaxolone
- patients that discontinued Part A, number ([9]; 23 enrolled): 6 patients
- patients that discontinued Part A, percent ([9]; 23 enrolled): 26.1%
- fatigue, number of patients reporting ([9]; 23 enrolled TSC patients): 3 patients
- fatigue, percent of patients reporting ([9]; 23 enrolled TSC patients): 13.0%
- overall tolerability ([9]; 23 enrolled TSC patients): generally well-tolerated
- patients with seizure assessed by the principal investigator as treatment related ([9]; 23 enrolled TSC patients): One
- sedation, number of patients reporting ([9]; 23 enrolled TSC patients): 3 patients
- sedation, percent of patients reporting ([9]; 23 enrolled TSC patients): 13.0%
- somnolence, number of patients reporting ([9]; 23 enrolled TSC patients): 10 patients
- somnolence, percent of patients reporting ([9]; 23 enrolled TSC patients): 43.5%
- somnolence-related adverse events (somnolence, sedation, fatigue and lethargy), number of patients ([9]; 23 enrolled TSC patients): 17 patients
- ganaxolone tolerability issues with concomitant CBD above 10 mg/kg vs no CBD or CBD at or below 10 mg/kg ([9]; concomitant CBD above 10 mg/kg): greater ganaxolone tolerability issues
- patients on concomitant cannabidiol experiencing somnolence-related adverse events ([9]; concomitant cannabidiol (n=12)): All patients
- patients that discontinued Part A because of an adverse event ([9]; of the patients that discontinued): 4
